Usually IC50 stands for the concentration needed to halve the response being measured. A higher IC50 goes with weaker potency.

Where only a bound is given, the exact number is not on record here.

Sodium/hydrogen exchanger 1 (Homo sapiens), sequence (P19634 whole entry): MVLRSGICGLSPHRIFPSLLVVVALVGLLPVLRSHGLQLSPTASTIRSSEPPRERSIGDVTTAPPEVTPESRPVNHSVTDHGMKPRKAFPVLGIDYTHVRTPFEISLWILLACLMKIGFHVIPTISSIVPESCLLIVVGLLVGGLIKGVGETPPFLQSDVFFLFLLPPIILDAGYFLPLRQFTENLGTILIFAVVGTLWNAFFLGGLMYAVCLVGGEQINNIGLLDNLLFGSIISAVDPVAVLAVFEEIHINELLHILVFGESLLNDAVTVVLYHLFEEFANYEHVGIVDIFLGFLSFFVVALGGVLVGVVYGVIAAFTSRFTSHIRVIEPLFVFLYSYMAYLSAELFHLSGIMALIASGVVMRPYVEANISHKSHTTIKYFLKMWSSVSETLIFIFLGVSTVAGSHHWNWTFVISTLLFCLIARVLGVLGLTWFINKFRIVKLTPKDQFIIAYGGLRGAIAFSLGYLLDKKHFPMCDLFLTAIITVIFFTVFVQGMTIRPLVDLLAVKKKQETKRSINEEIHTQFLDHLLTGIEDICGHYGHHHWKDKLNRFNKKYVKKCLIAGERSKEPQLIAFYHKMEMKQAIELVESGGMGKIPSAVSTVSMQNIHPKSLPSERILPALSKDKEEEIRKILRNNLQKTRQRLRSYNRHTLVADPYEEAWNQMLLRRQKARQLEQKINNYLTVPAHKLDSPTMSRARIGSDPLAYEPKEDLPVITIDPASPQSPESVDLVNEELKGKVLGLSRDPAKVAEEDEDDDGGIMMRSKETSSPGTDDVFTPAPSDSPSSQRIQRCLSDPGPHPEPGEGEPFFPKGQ

The target of one test is T1, Urokinase-type plasminogen activator (Homo sapiens, UniProt P00749). Description: Inhibition of urokinase-type plasminogen activator.
Regarding `N=C(N)NC(=O)c1nc(Cl)c(NCc2ccccn2)nc1N`, the IC50 came to 38 µM. Take `N=C(N)NC(=O)c1ccccc1` [AMINO(BENZAMIDO)METHANIMINIUM CHLORIDE]: the half-maximal inhibitory concentration (IC50) is > 1000 µM.

`N=C(N)NC(=O)c1c[nH]cn1`: the half-inhibitory concentration (IC50) was > 1000 µM. Same read-out and setting: to `N=C(N)NC(=O)c1cnc(Cl)c(Cl)c1` belongs > 1000 µM; to `COC(=O)CNc1nc(N)c(C(=O)NC(=N)N)nc1Cl`, 26 µM.

On to `N=C(N)NC(=O)c1ncc(N)nc1N`, for which the IC50 amounted to 19 µM.

With `N=C(N)NC(=O)c1nc(Cl)c(NCCS(=O)(=O)O)nc1N`, the IC50 was > 1000 µM. The same measure, in the same setting: to `COc1cc(N)c(Cl)cc1C(=O)NC(=N)N` belongs 222 µM; to `CCN(c1nc(N)c(C(=O)NC(=N)N)nc1Cl)C(C)C`, 6 µM.

`N=C(N)NC(=O)c1nc(Cl)c(NCC[n+]2ccccc2)nc1N` displayed an IC50 of 30 µM. The same measure, in the same setting: the result for `N=C(N)NC(=O)c1nc(Cl)c(NCCc2nnn[nH]2)nc1N` reads 61 µM.

`N=C(N)NC(=O)c1nc(C#Cc2ccccc2)c(N)nc1N` came in with an IC50 of 2 µM. In the case of `N=C(N)NC(=O)c1nc(Cl)c(NCCNCc2ccccc2)nc1N`, the IC50 worked out at 28 µM.

`N=C(N)NC(=O)c1cnc(N)c(Br)n1`: the IC50 was > 1000 µM.

In the case of `CCN(CC)CCNc1nc(N)c(C(=O)NC(=N)N)nc1Cl`, the IC50 was found to be 14 µM. Regarding `N=C(N)NC(=O)c1nc(Cl)c(NCc2ccccc2)nc1N`, the IC50 is 8 µM. Consider `N=C(N)NC(=O)c1nc(I)c(N)nc1N`, for which the IC50 was determined as 2 µM. As for `N=C(N)NC(=O)c1nc(Cl)c(NCc2nnn[nH]2)nc1N`, half-maximal inhibition (IC50) was put at 177 µM.

As to `N=C(N)NC(=O)c1nc(Cl)c(NCCc2ccccc2)nc1N`, the IC50 turned out to be 16 µM. In turn, `N=C(N)NC(=O)c1nc(Cl)c(NCCC(=O)O)nc1N` gave an IC50 of 102 µM. `N=C(N)NC(=O)c1nc(Cl)c(NCc2ccc(F)cc2)nc1N` returned an IC50 of 6 µM. Take `N=C(N)NC(=O)c1ccccn1` [AMINO(PICOLINAMIDO)METHANIMINIUM CHLORIDE]: the IC50 was > 1000 µM. The same measure, in the same setting: the result for `NNC(=O)c1nc(Cl)c(N)nc1N` reads > 1000 µM; that for `N#CCNc1nc(N)c(C(=O)NC(=N)N)nc1Cl`, 50 µM; that for `CCOC(=O)CCNc1nc(N)c(C(=O)NC(=N)N)nc1Cl`, 25 µM. Still for that read-out and setting: to `CCOP(=O)(CCNc1nc(N)c(C(=O)NC(=N)N)nc1Cl)OCC` belongs 44 µM; to `CN(CCNc1nc(N)c(C(=O)NC(=N)N)nc1Cl)Cc1ccccc1`, 15 µM. For `N=C(N)NC(=O)c1nc(Cl)c(NCCP(=O)(O)O)nc1N`, the IC50 was > 1000 µM. In turn, `N=C(N)NC(=O)c1nc(Cl)c(NCCS(=O)(=O)Cc2ccccc2)nc1N` yielded an IC50 of 15 µM.

The compound `N=C(N)NC(=O)c1nc(-c2ccccc2)c(N)nc1N` registered an IC50 of 10 µM. For `N=C(N)NC(=O)c1nc(Cl)c(NCc2ccncc2)nc1N`, the IC50 turned out to be 6 µM.

As for `N=C(N)NC(=O)c1nc(Cl)c(NCC(=O)O)nc1N`, the IC50 came out at 110 µM.

In the case of `N=C(N)NC(=O)c1ncc(NCc2ccccc2)nc1N`, the IC50 turned out to be 43 µM. The same measure, in the same setting: the result for `CCOP(=O)(CNc1nc(N)c(C(=O)NC(=N)N)nc1Cl)OCC` reads 37 µM.

In turn, `Cc1ccc(S(=O)(=O)NCCNc2nc(N)c(C(=O)NC(=N)N)nc2Cl)cc1` registered an IC50 of 35 µM. With `CCOP(=O)(NNc1nc(N)c(C(=O)NC(=N)N)nc1Cl)OCC`, the IC50 was 10 µM. For `N=C(N)NC(=O)c1nc(Cl)c(NCc2cccnc2)nc1N`, the IC50 amounted to 17 µM. Consider `N=C(N)NC(=O)c1cccnc1` [AMINO(NICOTINAMIDO)METHANIMINIUM CHLORIDE], for which the IC50 was > 1000 µM.

`Nc1noc(-c2nc(Cl)c(N)nc2N)n1`: the IC50 was > 1000 µM. The same measure, in the same setting: the result for `N=C(N)NC(=O)c1nc(Cl)c(NCP(=O)(O)O)nc1N` reads > 1000 µM; that for `N#CCCNc1nc(N)c(C(=O)NC(=N)N)nc1Cl`, 16 µM. On the same count and under the same terms, to `N=C(N)NC(=O)c1nc(Cl)cnc1N` belongs > 1000 µM. The same measure, in the same setting: to `N=C(N)NC(=O)c1cnccn1` belongs > 1000 µM.

`CCOP(=O)(O)CCNc1nc(N)c(C(=O)NC(=N)N)nc1Cl`: the IC50 was > 1000 µM. Still for that read-out and setting: the result for `N=C(N)NC(=O)c1ncc(NCCc2ccccc2)nc1N` reads 120 µM; that for `N=C(N)NC(=O)c1nc(Cl)c(N2CCCCCC2)nc1N`, 6 µM. `N=C(N)NC(=O)c1nc(Cl)c(NCCSCc2ccccc2)nc1N` had an IC50 of 21 µM.

`N=C(N)NC(=O)c1nc(Br)c(N)nc1N` showed an IC50 of 5 µM.

A further test has as its target Sodium/hydrogen exchanger 1 (Homo sapiens) (UniProt P19634). Kind of test: Ratio of compound K0.5 to amiloride K0.5 for NHE1.
On to `N=C(N)NC(=O)c1nc(Br)c(N2CCCCCC2)nc1N`, for which the Ratio was found to be 566.

Consider `CCN(c1nc(N)c(C(=O)NC(=N)N)nc1Cl)C(C)C`, for which the Ratio amounted to 140.

For `CCN(c1nc(N)c(C(=O)NC(=N)N)nc1I)C(C)C`, the Ratio stood at 313. The same measure, in the same setting: to `N=C(N)NC(=O)c1nc(Cl)c(N2CCCCCC2)nc1N` belongs 524.

A further test has the same target. Description: Inhibition of NHE1.
In turn, `N=C(N)NC(=O)c1nc(Cl)c(N)nc1N` displayed a K0.5 of 7 µM.

A further test has as its target T1, Urokinase-type plasminogen activator. Kind of test: Ratio of compound K0.5 to amiloride K0.5 for urokinase-type plasminogen activator.
As for `CCN(c1nc(N)c(C(=O)NC(=N)N)nc1Cl)C(C)C`, the Ratio IC50 is 2. Turning to `N=C(N)NC(=O)c1nc(Cl)c(N2CCCCCC2)nc1N`, the Ratio IC50 was 2.

(Values after ChEMBL document CHEMBL1909623, “Synthesis and preliminary evaluation of amiloride analogs as inhibitors of the urokinase-type plasminogen activator (uPA)” (Bioorg Med Chem Lett, 2011).)
